Laboratory results reported in ChEMBL document CHEMBL1201862, “PubChem BioAssay data set” (2004).
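Briefly, cells in 96-well plates were exposed to five compound concentrations for 48 h, and endpoints were estimated by linear interpolation. GI50: concentration for 50% inhibition of growth.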 The source made the active and inactive calls. No stated cut-off is given here; in the data, active = GI50 up to about 1.1 µM and inactive = higher.

Key:
Assay in all cases: inhibition of tumour cell growth, NCI panel, 48 h
LXFL 529 = system: LXFL 529
RXF 631 = system: RXF 631
MDA-MB-231 = system: MDA-MB-231
MDA-MB-435 = system: MDA-MB-435
MDA-N = system: MDA-N
T47D = system: T47D
DU-145 = system: DU-145
Hs-578T = system: Hs-578T

Measured: GI50

COc1ccc(/C(C=O)=C(\Cl)c2ccc(OC)c(OC)c2)cc1
inactive: LXFL 529 > 100 µM | RXF 631 > 100 µM

C#CCCCC(=C)C[C@H](OCc1ccccc1)[C@H]1OC(=O)[C@@H]1C
inactive: MDA-MB-231 13.2 µM | MDA-MB-435 48.6 µM | MDA-N 22.9 µM

Nc1ccc(OCC(O)N2C(=O)c3ccccc3C2=O)cc1 (configuration not stated)
inactive: MDA-MB-231 > 100 µM | MDA-MB-435 > 100 µM | T47D > 100 µM | DU-145 > 100 µM | MDA-N > 100 µM

O=C1/C(=C/c2ccc(Cl)cc2)N=C(c2ccccc2)N1/N=C/c1ccccc1O
inactive: MDA-MB-231 15.1 µM | MDA-MB-435 26.7 µM | T47D 6.27 µM | DU-145 21 µM | MDA-N 69.5 µM | Hs-578T 36.4 µM

CO[C@@]12[C@H](COC(N)=O)C3=C(C(=O)C(C)=C(N)C3=O)N1C[C@@H]1N[C@@H]12 [MITOMYCIN]
inactive: LXFL 529 2.55 µM | MDA-MB-231 5.71 µM | Hs-578T 3.22 µM

COC(=O)C1=C(C)N2CCCOC2(C)C(C(=O)OC)C1c1cccc(Cl)c1 (configuration not stated)
inactive: LXFL 529 20 µM

O=S(O)c1cc(Cl)c(O)c(Cl)c1
inactive: LXFL 529 > 100 µM | RXF 631 > 100 µM
